# Patent US20240067632A1, “WEE1 Degrading Compounds and Uses Thereof” (Bristol-Myers Squibb Company, priority 2022, published 2024)
# Read-outs that look alike come from different tables or passages of the source.
# How the values were obtained:
# WEE1 = target: T1, WEE1 (Homo sapiens, UniProt P30291+Q96SW2); experiment: WEE1-ePL degradation assay (LentiX-WEE1-ePL-GSPT1-ND cells, InCELL Hunter luminescence, 4 h); assay type: cell-based; details: 293T-LentiX WEE1-ePL cells; for DC50: read-out: 293T-LentiX WEE1-ePL Degradation 4 hr (EC50)
# T1 construct: C-terminal ePL-tagged (DiscoverX, Fremont, CA) full-length WEE1 expression construct; expressed in transfected cells; host or cells: LentiX-HEK293T (Invitrogen), lentiviral transduction; co-expressing GSPT1-GN (G576N, lacking the first 158 amino acids)
# Summary of the method: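 Luminescent readout (InCELL Hunter, 30 min RT) of WEE1-ePL levels in transduced HEK293T cells after 4 h compound exposure at 37 °C. Dosing: 10 points, 3-fold steps, top 1 uM or 10 uM. EC50 from four-parameter logistic fit; Ymax set by DMSO.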
# MKN45 cells = experiment: MKN45 cell proliferation assay (Cell-Titer-Glo, 120 h); assay type: cell-based; details: for EC50: Homo sapiens, MKN-45, 120 h, Cell-Titer-Glo, read-out: MKN45 Cell Prolif. 120 hr (EC50); for MKN45 Cell Prolif. 120 hr (Ymin-Obs): minimal percent of DMSO control observed in the concentrations tested
# Summary of the method: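 Growth inhibition was read as blank-corrected Cell-Titer-Glo luminescence expressed as percent DMSO control after 120 h at 37 C, 400 cells/well. Compounds tested in triplicate as 10-point half-log series from 1 or 10 uM, 0.1% DMSO; four-parameter fit gave EC50, and lowest observed percent control was reported as Ymin-obs.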
# [1] = lower limit of the fit (0 = luciferase inhibitor, Ymax = DMSO control)
SMILES,293T-LentiX WEE1-ePL Degradation 4 hr (Ymin) (WEE1; [1]),DC50 (WEE1),EC50 (MKN45 cells; growth inhibition),MKN45 Cell Prolif. 120 hr (Ymin-Obs) (MKN45 cells),"293T-LentiX WEE1-ePL Degradation 4 hr (Ymin) (WEE1; lower limit of the fit (Ymin=0 luciferase inhibitor, Ymax DMSO control))",EC50 (MKN45 cells)
"Cc1ccc2cc(CN3C[C@@H](Oc4ccc5c(c4)CN(C4CCC(=O)NC4=O)C5=O)C[C@@H]3C)ccc2n1 (stereo partly drawn) [3-(5-{[(3S,5S)-5-methyl-1-[(2-methylquinolin-6-yl)methyl]pyrrolidin-3-yl]oxy}-1-oxo-2,3-dihydro-1H-isoindol-2-yl)piperidine-2,6-dione]",64.5,83.9 nM,> 10000 nM,82.25,,
"O=C1CCC(N2Cc3cc(O[C@H]4CCN(Cc5cc6cc(F)ccc6cn5)C4)c(F)cc3C2=O)C(=O)N1 (stereo partly drawn) [3-(6-fluoro-5-{[(3S)-1-[(6-fluoroisoquinolin-3-yl)methyl]pyrrolidin-3-yl]oxy}-1-oxo-2,3-dihydro-1H-isoindol-2-yl)piperidine-2,6-dione]",36,14.3 nM,104 nM,11.55,,
"O=C1CCC(N2Cc3cc(O[C@H]4CCN(Cc5cc6ccccc6cn5)C4)c(F)cc3C2=O)C(=O)N1 (stereo partly drawn) [3-(6-fluoro-5-{[(3S)-1-[(isoquinolin-3-yl)methyl]pyrrolidin-3-yl]oxy}-1-oxo-2,3-dihydro-1H-isoindol-2-yl)piperidine-2,6-dione]",34,10.6 nM,53.7 nM,7.57,,
"O=C1CCC(N2Cc3cc(O[C@H]4CCN(Cc5ccc6nc(C7CCOCC7)ccc6c5)C4)c(F)cc3C2=O)C(=O)N1 (stereo partly drawn) [3-(6-fluoro-5-{[(3S)-1-{[2-(oxan-4-yl)quinolin-6-yl]methyl}pyrrolidin-3-yl]oxy}-1-oxo-2,3-dihydro-1H-isoindol-2-yl)piperidine-2,6-dione]",,3 nM,,15.44,30.27,7.69 nM
"Cc1nc2ccccc2cc1CN1CC[C@H](Oc2ccc3c(c2)C(=O)N(C2CCC(=O)NC2=O)C3)C1 (stereo partly drawn) [3-(6-{[(3S)-1-[(2-methylquinolin-3-yl)methyl]pyrrolidin-3-yl]oxy}-1-oxo-2,3-dihydro-1H-isoindol-2-yl)piperidine-2,6-dione]",87.055,,,79.9,,
"O=C1CCC(N2Cc3ccc(O[C@H]4CCN(Cc5cc6ccccc6cn5)C4)cc3C2=O)C(=O)N1 (stereo partly drawn) [3-(6-{[(3S)-1-[(isoquinolin-3-yl)methyl]pyrrolidin-3-yl]oxy}-1-oxo-2,3-dihydro-1H-isoindol-2-yl)piperidine-2,6-dione]",93.8,,0.399 nM,82.45,,
"Cc1ccc2cc(CN3CC[C@H](Oc4ccc5c(c4)CN(C4(C)CCC(=O)NC4=O)C5=O)C3)ccc2n1 (stereo partly drawn) [3-methyl-3-(5-{[(3S)-1-[(2-methylquinolin-6-yl)methyl]pyrrolidin-3-yl]oxy}-1-oxo-2,3-dihydro-1H-isoindol-2-yl)piperidine-2,6-dione]",69.05,5070 nM,> 10000 nM,83.56,,
"CNC(=O)c1ccc2cc(CN3CC[C@H](Oc4ccc5c(c4)CN(C4CCC(=O)NC4=O)C5=O)C3)ncc2c1 (stereo partly drawn) [3-{[(3S)-3-{[2-(2,6-dioxopiperidin-3-yl)-1-oxo-2,3-dihydro-1H-isoindol-5-yl]oxy}pyrrolidin-1-yl]methyl}-N-methylisoquinoline-7-carboxamide]",28,29.8 nM,66.8 nM,7.51,,
"N#Cc1ccc2cc(CN3CC[C@H](Oc4ccc5c(c4)CN(C4CCC(=O)NC4=O)C5=O)C3)ncc2c1 (stereo partly drawn) [3-{[(3S)-3-{[2-(2,6-dioxopiperidin-3-yl)-1-oxo-2,3-dihydro-1H-isoindol-5-yl]oxy}pyrrolidin-1-yl]methyl}isoquinoline-7-carbonitrile]",29,1.87 nM,10 nM,8.661,,
